Assay results: ChEMBL document CHEMBL5634077, “Recent advances in 1,2,3- and 1,2,4-triazole hybrids as antimicrobials and their SAR: A critical review” (2023)

How the values were obtained:
Format in all cases: functional
[1] = system: Staphylococcus aureus; assay: Antibacterial activity against Methicillin-resistant Staphylococcus aureus assessed as bacterial growth inhibition
[2] = system: Enterococcus faecalis; assay: Antibacterial activity against Enterococcus faecalis assessed as bacterial growth inhibition
[3] = system: Staphylococcus epidermidis; assay: Antibacterial activity against Methicillin-sensitive Staphylococcus epidermidis assessed as bacterial growth inhibition
[4] = system: Staphylococcus epidermidis; assay: Antibacterial activity against Methicillin-resistant Staphylococcus epidermidis assessed as bacterial growth inhibition
[5] = system: Enterococcus faecium; assay: Antibacterial activity against Enterococcus faecium assessed as inhibition of bacterial growth
[6] = system: Staphylococcus aureus; assay: Antibacterial activity against Methicillin-sensitive Staphylococcus aureus assessed as bacterial growth inhibition

Measured: MIC

CCO/N=C1/C(=O)N(Cc2cn(CC(=O)N3CCC[C@@H]4CN(c5c(F)cc6c(=O)c(C(=O)O)cn(C7CC7)c6c5OC)C[C@@H]43)nn2)c2cccc(F)c21
0.06 µg/mL: all assays above

CO/N=C1/C(=O)N(Cc2cn(CC(=O)N3CCC[C@@H]4CN(c5c(F)cc6c(=O)c(C(=O)O)cn(C7CC7)c6c5OC)C[C@@H]43)nn2)c2cccc(F)c21
0.06 µg/mL: all assays above

CO/N=C1/C(=O)N(Cc2cn(CC(=O)N3CCC[C@@H]4CN(c5c(F)cc6c(=O)c(C(=O)O)cn(C7CC7)c6c5OC)C[C@@H]43)nn2)c2ccccc21
0.06 µg/mL: all assays above

CO/N=C1/C(=O)N(Cc2cn(CC(=O)N3CCC[C@@H]4CN(c5c(F)cc6c(=O)c(C(=O)O)cn(C7CC7)c6c5OC)C[C@@H]43)nn2)c2cc(C)ccc21
0.06 µg/mL: all assays above

COc1c(N2C[C@H]3CCCN(C(=O)Cn4cc(CN5C(=O)C(=O)c6ccc(C)cc65)nn4)[C@H]3C2)c(F)cc2c(=O)c(C(=O)O)cn(C3CC3)c12
0.06 µg/mL: all assays above

COc1c(N2C[C@H]3CCCN(C(=O)Cn4cc(CN5C(=O)C(=O)c6ccccc65)nn4)[C@H]3C2)c(F)cc2c(=O)c(C(=O)O)cn(C3CC3)c12
0.06 µg/mL: all assays above

COc1c(N2C[C@@H]3CCCN[C@@H]3C2)c(F)cc2c(=O)c(C(=O)O)cn(C3CC3)c12 [MOXIFLOXACIN]
0.06 µg/mL: all assays above

CO/N=C1/C(=O)N(Cc2cn(CC(=O)N3CCC[C@@H]4CN(c5c(F)cc6c(=O)c(C(=O)O)cn(C7CC7)c6c5OC)C[C@@H]43)nn2)c2cc(F)ccc21
0.06 µg/mL: all assays above

CCO/N=C1/C(=O)N(Cc2cn(CC(=O)N3CCC[C@@H]4CN(c5c(F)cc6c(=O)c(C(=O)O)cn(C7CC7)c6c5OC)C[C@@H]43)nn2)c2cc(C)ccc21
0.06 µg/mL: all assays above

CCO/N=C1/C(=O)N(Cc2cn(CC(=O)N3CCC[C@@H]4CN(c5c(F)cc6c(=O)c(C(=O)O)cn(C7CC7)c6c5OC)C[C@@H]43)nn2)c2cc(F)ccc21
0.06 µg/mL: all assays above

CCO/N=C1/C(=O)N(Cc2cn(CC(=O)N3CCC[C@@H]4CN(c5c(F)cc6c(=O)c(C(=O)O)cn(C7CC7)c6c5OC)C[C@@H]43)nn2)c2ccccc21
0.06 µg/mL: all assays above

COc1c(N2C[C@H]3CCCN(C(=O)Cn4cc(CN5C(=O)C(=O)c6ccc(F)cc65)nn4)[C@H]3C2)c(F)cc2c(=O)c(C(=O)O)cn(C3CC3)c12
0.06 µg/mL: all assays above
